Legend:
Assay in all cases: radiometric filter-binding kinase assay, Kinase HotSpot
Settings in all cases: compound 0.5 µM; ATP 10 µM
OXSR1 (human) = OXSR1 (human) (UniProt O95747)
PASK (human) = PASK (human) (UniProt Q96RG2)
[1] = molecular target: JAK1 JH1 catalytic (human) (UniProt P23458)
ABL1 (human) = ABL1 (human) (UniProt P00519)
KIT (human) = KIT (human) (UniProt P10721)
CAMK2D (human) = CAMK2D (human) (UniProt Q13557)
DYRK1A (human) = DYRK1A (human) (UniProt Q13627)
MAPK14 (human) = MAPK14 (human) (UniProt Q16539)
LIMK1 (human) = LIMK1 (human) (UniProt P53667)
LIMK1 (human), sequence (P53667 whole entry, looked up): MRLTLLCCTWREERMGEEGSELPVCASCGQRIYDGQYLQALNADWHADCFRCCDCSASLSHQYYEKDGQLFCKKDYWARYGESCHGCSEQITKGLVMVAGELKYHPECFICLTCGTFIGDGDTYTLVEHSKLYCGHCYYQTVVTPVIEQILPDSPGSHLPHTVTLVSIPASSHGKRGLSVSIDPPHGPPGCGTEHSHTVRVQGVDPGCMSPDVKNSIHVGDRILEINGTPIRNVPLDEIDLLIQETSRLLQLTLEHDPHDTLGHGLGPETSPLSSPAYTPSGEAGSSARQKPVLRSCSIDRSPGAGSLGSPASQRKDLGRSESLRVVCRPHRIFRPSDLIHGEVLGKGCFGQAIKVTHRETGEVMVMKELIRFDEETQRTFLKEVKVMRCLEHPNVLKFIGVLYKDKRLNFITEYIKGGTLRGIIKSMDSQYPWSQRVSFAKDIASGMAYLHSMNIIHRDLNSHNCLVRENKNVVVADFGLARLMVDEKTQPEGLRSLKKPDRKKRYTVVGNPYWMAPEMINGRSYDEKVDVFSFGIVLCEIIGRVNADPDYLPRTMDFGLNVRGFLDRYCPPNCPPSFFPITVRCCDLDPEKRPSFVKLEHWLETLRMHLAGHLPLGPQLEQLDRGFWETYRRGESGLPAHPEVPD

EPHB4 (human) = EPHB4 (human) (UniProt P54760)
TTK (human) = TTK (human) (UniProt P33981)
AURKA (human) = AURKA (human) (UniProt O14965)
EGFR (human) = EGFR (human) (UniProt P00533)
MAPKAPK2 (human) = MAPKAPK2 (human) (UniProt P49137)
LCK (human) = LCK (human) (UniProt P06239)
FGFR2 (human) = FGFR2 (human) (UniProt P21802)
MAP4K2 (human) = MAP4K2 (human) (UniProt Q12851)
PLK1 (human) = PLK1 (human) (UniProt P53350)
CHEK1 (human) = CHEK1 (human) (UniProt O14757)
TXK (human) = TXK (human) (UniProt P42681)
ROCK1 (human) = ROCK1 (human) (UniProt Q13464)
ROCK1 (human), sequence (Q13464 whole entry, looked up): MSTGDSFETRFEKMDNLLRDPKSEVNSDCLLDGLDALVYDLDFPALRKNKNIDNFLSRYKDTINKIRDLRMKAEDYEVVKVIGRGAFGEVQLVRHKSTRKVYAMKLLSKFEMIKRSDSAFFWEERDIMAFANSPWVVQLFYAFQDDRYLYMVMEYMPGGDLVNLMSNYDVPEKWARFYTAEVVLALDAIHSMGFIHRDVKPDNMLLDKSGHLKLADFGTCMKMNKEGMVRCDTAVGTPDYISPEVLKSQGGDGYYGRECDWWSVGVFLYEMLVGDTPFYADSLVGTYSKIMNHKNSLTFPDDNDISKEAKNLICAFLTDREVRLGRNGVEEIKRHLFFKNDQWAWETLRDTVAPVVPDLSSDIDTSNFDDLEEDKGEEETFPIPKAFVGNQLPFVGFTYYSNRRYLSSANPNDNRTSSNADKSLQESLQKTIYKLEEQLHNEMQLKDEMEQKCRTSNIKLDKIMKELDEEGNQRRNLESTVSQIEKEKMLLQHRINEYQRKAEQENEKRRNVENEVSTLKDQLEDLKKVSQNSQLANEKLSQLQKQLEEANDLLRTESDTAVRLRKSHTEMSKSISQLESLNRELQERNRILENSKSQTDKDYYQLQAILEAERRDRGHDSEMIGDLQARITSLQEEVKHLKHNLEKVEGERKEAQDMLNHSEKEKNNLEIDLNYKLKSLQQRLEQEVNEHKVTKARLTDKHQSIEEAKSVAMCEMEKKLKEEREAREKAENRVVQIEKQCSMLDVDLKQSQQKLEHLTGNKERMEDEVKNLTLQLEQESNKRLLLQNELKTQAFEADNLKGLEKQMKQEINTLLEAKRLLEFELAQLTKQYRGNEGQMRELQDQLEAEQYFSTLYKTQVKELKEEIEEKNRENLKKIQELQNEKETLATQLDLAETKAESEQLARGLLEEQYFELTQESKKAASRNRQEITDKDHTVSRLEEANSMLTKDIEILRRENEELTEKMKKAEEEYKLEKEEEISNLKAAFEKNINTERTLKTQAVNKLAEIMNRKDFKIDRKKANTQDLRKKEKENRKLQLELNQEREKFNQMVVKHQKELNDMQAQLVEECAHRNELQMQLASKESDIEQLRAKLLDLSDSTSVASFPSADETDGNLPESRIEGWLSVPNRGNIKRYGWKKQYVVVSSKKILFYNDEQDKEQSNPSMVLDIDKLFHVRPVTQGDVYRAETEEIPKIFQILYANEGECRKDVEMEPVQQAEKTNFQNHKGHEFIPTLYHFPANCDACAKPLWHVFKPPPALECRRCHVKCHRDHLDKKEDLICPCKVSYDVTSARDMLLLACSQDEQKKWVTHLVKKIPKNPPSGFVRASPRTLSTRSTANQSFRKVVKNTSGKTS

NEK2 (human) = NEK2 (human) (UniProt P51955)
PAK2 (human) = PAK2 (human) (UniProt Q13177)
ACVR1B (human) = ACVR1B (human) (UniProt P36896)
ACVR1B (human), sequence (P36896 whole entry, looked up): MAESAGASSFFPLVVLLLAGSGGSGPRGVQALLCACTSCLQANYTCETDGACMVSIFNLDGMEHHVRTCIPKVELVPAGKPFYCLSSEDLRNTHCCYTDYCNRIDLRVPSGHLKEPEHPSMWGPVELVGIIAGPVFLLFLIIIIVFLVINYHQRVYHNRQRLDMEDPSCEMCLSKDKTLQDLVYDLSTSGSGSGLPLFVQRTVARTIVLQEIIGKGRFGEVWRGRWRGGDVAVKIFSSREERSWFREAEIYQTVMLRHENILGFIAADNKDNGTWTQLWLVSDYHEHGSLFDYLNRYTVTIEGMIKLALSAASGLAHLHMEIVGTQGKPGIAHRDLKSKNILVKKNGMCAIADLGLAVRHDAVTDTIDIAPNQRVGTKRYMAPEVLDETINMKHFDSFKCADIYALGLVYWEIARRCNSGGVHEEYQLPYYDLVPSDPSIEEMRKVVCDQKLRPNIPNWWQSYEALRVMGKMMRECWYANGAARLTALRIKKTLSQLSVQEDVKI

RET (human) = RET (human) (UniProt P07949)
PDGFRB (human) = PDGFRB (human) (UniProt P09619)
CAMKK2 (human) = CAMKK2 (human) (UniProt Q96RR4)
MAP3K14 (human) = MAP3K14 (human) (UniProt Q99558)
CLK1 (human) = CLK1 (human) (UniProt P49759)
CLK1 (human), sequence (P49759 whole entry, looked up): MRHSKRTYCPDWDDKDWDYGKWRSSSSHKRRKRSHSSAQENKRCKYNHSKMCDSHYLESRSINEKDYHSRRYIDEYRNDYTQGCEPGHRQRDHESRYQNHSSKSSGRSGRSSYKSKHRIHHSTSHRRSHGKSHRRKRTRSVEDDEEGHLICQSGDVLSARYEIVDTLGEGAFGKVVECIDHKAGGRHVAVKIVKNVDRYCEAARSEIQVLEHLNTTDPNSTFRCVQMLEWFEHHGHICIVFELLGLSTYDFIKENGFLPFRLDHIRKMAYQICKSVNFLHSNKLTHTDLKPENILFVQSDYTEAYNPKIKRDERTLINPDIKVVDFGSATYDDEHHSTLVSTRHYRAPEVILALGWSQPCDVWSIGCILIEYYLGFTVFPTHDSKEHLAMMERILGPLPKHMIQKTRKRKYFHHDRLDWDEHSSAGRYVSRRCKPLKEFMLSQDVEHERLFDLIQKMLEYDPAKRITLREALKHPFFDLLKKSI

EPHA5 (human) = EPHA5 (human) (UniProt P54756)
MKNK2 (human) = MKNK2 (human) (UniProt Q9HBH9)
DAPK2 (human) = DAPK2 (human) (UniProt Q9UIK4)
EPHA4 (human) = EPHA4 (human) (UniProt P54764)
EPHA4 (human), sequence (P54764 whole entry, looked up): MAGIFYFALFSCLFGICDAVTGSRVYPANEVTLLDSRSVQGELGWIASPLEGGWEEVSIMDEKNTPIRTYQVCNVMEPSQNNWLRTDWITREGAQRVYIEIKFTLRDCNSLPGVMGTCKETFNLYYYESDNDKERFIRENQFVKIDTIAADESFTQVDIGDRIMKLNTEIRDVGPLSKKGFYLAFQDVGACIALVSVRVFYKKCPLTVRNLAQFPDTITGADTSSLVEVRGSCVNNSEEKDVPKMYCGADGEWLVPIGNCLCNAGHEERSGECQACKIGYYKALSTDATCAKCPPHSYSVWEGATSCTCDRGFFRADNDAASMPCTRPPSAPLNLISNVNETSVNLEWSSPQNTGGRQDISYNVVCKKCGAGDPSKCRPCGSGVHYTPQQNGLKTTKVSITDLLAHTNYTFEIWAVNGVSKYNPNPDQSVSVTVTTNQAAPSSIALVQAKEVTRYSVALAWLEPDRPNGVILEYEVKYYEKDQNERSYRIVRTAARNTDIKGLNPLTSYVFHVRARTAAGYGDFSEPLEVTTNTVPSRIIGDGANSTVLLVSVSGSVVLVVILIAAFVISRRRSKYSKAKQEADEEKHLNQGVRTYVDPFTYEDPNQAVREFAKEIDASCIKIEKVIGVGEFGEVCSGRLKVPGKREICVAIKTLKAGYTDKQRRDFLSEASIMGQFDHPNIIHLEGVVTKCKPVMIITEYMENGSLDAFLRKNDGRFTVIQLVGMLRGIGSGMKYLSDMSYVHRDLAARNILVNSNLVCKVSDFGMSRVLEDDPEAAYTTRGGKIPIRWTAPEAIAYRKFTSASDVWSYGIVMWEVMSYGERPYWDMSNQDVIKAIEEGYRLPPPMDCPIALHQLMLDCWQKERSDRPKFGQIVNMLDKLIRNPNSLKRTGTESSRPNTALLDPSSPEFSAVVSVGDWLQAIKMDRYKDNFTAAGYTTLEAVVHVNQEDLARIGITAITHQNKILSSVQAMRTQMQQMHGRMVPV

ERBB2 (human) = ERBB2 (human) (UniProt P04626)
FRK (human) = FRK (human) (UniProt P42685)
FRK (human), sequence (P42685 whole entry, looked up): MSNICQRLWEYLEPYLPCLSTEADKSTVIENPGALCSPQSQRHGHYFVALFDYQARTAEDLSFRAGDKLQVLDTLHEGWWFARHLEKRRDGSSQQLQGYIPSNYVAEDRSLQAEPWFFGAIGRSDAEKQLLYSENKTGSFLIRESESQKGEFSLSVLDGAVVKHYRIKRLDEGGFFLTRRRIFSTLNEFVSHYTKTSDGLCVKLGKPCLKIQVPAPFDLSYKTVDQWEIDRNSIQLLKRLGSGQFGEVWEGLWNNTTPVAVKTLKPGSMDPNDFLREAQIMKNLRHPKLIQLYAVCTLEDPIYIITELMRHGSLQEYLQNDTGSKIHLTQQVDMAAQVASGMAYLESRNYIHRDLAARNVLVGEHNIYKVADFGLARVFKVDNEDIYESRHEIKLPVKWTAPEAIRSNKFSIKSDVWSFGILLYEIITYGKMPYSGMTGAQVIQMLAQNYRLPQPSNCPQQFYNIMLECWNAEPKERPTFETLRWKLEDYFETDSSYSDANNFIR

AURKC (human) = AURKC (human) (UniProt Q9UQB9)
CSNK2A1 (human) = CSNK2A1 (human) (UniProt P68400)
CAMK2B (human) = CAMK2B (human) (UniProt Q13554)
JAK2 JH1 JH2 (human) = JAK2 JH1 JH2 (human) (UniProt O60674)
SRPK1 (human) = SRPK1 (human) (UniProt Q96SB4)
AXL (human) = AXL (human) (UniProt P30530)
CDK2 CCNE1 (human) = CDK2 CCNE1 (human) (UniProt P24941+P24864)

CAMK2D (human), sequence (Q13557 whole entry, looked up): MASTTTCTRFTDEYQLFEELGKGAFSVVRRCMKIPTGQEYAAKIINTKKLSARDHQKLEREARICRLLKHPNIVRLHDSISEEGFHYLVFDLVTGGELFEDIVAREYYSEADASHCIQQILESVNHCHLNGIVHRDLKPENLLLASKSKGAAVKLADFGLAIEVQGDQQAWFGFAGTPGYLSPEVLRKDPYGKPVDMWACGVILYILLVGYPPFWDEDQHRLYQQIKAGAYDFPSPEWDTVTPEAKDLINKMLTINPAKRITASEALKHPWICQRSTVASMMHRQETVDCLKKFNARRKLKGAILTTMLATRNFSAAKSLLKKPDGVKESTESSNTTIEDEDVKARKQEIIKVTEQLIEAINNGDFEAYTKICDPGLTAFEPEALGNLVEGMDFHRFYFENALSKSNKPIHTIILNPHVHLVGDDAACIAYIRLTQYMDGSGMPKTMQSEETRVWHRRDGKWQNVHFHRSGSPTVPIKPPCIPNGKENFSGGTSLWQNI

O=C1c2ccccc2-c2nc3nnnn3nc21
residual activity (OXSR1 (human)): 83%
residual activity (PASK (human)): 73.4%
residual activity [1]: 101%
residual activity (ABL1 (human)): 89.7%
residual activity (KIT (human)): 22.2%
residual activity (CAMK2D (human)): 93%
residual activity (DYRK1A (human)): 95%
residual activity (MAPK14 (human)): 88.6%
residual activity (LIMK1 (human)): 65%
residual activity (EPHB4 (human)): 97.1%
residual activity (TTK (human)): 125%
residual activity (AURKA (human)): 71.4%
residual activity (EGFR (human)): 37%
residual activity (MAPKAPK2 (human)): 104%
residual activity (LCK (human)): 70.5%
residual activity (FGFR2 (human)): 59.4%
residual activity (MAP4K2 (human)): 79.4%
residual activity (PLK1 (human)): 28.6%
residual activity (CHEK1 (human)): 112%
residual activity (TXK (human)): 90.8%
residual activity (ROCK1 (human)): 94.5%
residual activity (NEK2 (human)): 77.7%
residual activity (PAK2 (human)): 96.2%
residual activity (ACVR1B (human)): 113%
residual activity (RET (human)): 101%
residual activity (PDGFRB (human)): 11.3%
residual activity (CAMKK2 (human)): 76.9%
residual activity (MAP3K14 (human)): 124%
residual activity (CLK1 (human)): 79.4%
residual activity (EPHA5 (human)): 81.5%
residual activity (MKNK2 (human)): 78.3%
residual activity (DAPK2 (human)): 83.4%
residual activity (EPHA4 (human)): 61.1%
residual activity (ERBB2 (human)): 22.2%
residual activity (FRK (human)): 33.9%
residual activity (AURKC (human)): 95.4%
residual activity (CSNK2A1 (human)): 101%
residual activity (CAMK2B (human)): 85.1%
residual activity (JAK2 JH1 JH2 (human)): 82.6%
residual activity (SRPK1 (human)): 109%
residual activity (AXL (human)): 10.3%
residual activity (CDK2 CCNE1 (human)): 80.6%

Cc1nc(-c2ccccc2)c(-c2ccncc2)o1
residual activity (OXSR1 (human)): 102%
residual activity (PASK (human)): 98.1%
residual activity [1]: 103%
residual activity (ABL1 (human)): 100%
residual activity (KIT (human)): 93.7%
residual activity (CAMK2D (human)): 94.2%
residual activity (DYRK1A (human)): 98.4%
residual activity (MAPK14 (human)): 76.3%
residual activity (LIMK1 (human)): 95.5%
residual activity (EPHB4 (human)): 84.8%
residual activity (TTK (human)): 100%
residual activity (AURKA (human)): 91.2%
residual activity (EGFR (human)): 89.4%
residual activity (MAPKAPK2 (human)): 101%
residual activity (LCK (human)): 99.7%
residual activity (FGFR2 (human)): 108%
residual activity (MAP4K2 (human)): 106%
residual activity (PLK1 (human)): 104%
residual activity (CHEK1 (human)): 106%
residual activity (TXK (human)): 99.4%
residual activity (ROCK1 (human)): 99.8%
residual activity (NEK2 (human)): 116%
residual activity (PAK2 (human)): 82.3%
residual activity (ACVR1B (human)): 99.3%
residual activity (RET (human)): 97.5%
residual activity (PDGFRB (human)): 109%
residual activity (CAMKK2 (human)): 105%
residual activity (MAP3K14 (human)): 96.2%
residual activity (CLK1 (human)): 105%
residual activity (EPHA5 (human)): 91.4%
residual activity (MKNK2 (human)): 90.5%
residual activity (DAPK2 (human)): 106%
residual activity (EPHA4 (human)): 112%
residual activity (ERBB2 (human)): 105%
residual activity (FRK (human)): 103%
residual activity (AURKC (human)): 95.7%
residual activity (CSNK2A1 (human)): 109%
residual activity (CAMK2B (human)): 95.9%
residual activity (JAK2 JH1 JH2 (human)): 98.4%
residual activity (SRPK1 (human)): 101%
residual activity (AXL (human)): 91.1%
residual activity (CDK2 CCNE1 (human)): 93.4%
